Columns and labels:
hASIC1a [1] = biological target: T1, hASIC1a (Homo sapiens, UniProt P78348); assay: Whole-cell voltage clamp of pH-evoked response of human ASIC1a stably transfected in CHO cells; type: cell-based; design: expressed in transfected cells; conditions: for effect on proton-gated currents from CHO cells expressing hASIC1a: 1 μM, voltage clamp
T1 sequence (P78348 1-528): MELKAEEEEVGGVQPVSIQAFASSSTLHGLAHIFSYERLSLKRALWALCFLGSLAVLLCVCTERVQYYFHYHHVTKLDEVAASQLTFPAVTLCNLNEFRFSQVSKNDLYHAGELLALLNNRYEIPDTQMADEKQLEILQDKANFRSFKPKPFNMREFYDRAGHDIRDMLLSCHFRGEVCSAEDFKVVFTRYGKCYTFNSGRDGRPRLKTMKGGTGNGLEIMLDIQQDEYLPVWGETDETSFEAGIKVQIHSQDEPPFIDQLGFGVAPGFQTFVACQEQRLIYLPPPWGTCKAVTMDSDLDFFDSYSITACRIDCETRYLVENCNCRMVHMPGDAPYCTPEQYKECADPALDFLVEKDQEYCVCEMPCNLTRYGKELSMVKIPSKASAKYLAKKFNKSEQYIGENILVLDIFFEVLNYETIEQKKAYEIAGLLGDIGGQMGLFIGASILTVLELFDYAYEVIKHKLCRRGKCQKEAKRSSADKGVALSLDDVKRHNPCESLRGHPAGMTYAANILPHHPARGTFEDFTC
Protocol: FIG. 3 illustrates the inhibitory effect of Compound A on acid-evoked activation of human ASIC1a stably transfected in CHO cells. […] In this example, the size of the pH-evoked response was determined by measuring the area under the curve of the response (total charge transfer) and normalized to the control response. FIG. 3B depicts an example of an hASIC1a current (whole cell voltage clamp, −60 mV) evoked by a pH 6.8-buffered solution (from pH 7.4) in the presence or absence of Compound A (3 μM).
These endogenous proton-activated inward currents were recorded in the presence and absence of Compound J (1 μM) or Compound K (1 μM) using the whole cell configuration of the patch clamp method (voltage clamp mode).
All experiments are performed at room temperature (20-25° C.) in voltage clamp using conventional whole cell patch clamp methods (Neher, E., et al. (1978) Pfluegers Arch 375:219-228).
Coverslips with the cells are transferred to a 15 μl experimental chamber mounted on the stage of an inverted microscope (IMT-2, Olympus) supplied with Nomarski optics. Cells are continuously superfused with extracellular saline at a rate of 2.5 ml/min. After giga-seal formation, the whole cell configuration is attained by suction. The cells are held at a holding voltage of −60 mV and at the start of each experiment the current is continuously measured for 45 s to ensure a stable baseline. Solutions of low pH (<7) are delivered to the chamber through a custom-made gravity-driven flowpipe, the tip of which is placed approximately 50 μm from the cell. Application is triggered when the tubing connected to the flowpipe is compressed by a valve controlled by the Pulse-software. Initially, low pH (in general, pH 6.5) is applied for 5 s every 60 s. The sample interval during application is 5501s. After stable responses are obtained, the extracellular saline as well as the low-pH solution are switched to solutions containing the compound to be tested. The compound is present until responses of a repeatable amplitude are achieved. Current amplitudes are measured at the peak of the responses, and effect of the compounds is calculated as the amplitude at compound equilibrium divided by the amplitude of the current evoked by the pulse just before the compound was included.
The following salt solutions are used: extracellular solution (mM): NaCl (140), KCl (4), CaCl2 (2), MgCl2 (4), HEPES (10, pH 7.4); intracellular solution (mM): KCl (120), KOH (31), MgCl2 (1.785), EGTA (10), HEPES (10, pH 7.2). In general, compounds for testing are dissolved in 50% DMSO at 500 fold the highest concentration used.
Similar findings are shown in FIG. 3 with the human ASIC1a stably transfected in CHO cells. FIG. 3A compares the dose-response relationship between Compound A and amiloride [determined by measuring the area under the curve of the response (total charge transfer) and normalized to the control response]. […] FIGS. 14A and 14B show similar results for Compounds J and K.

hASIC1a [2] = biological target: T1, hASIC1a; assay: Calcium-imaging (FLIPR, Fluo-4) of acid (MES)-induced calcium response in ASIC1a expressing HEK293 cells; type: cell-based; design: expressed in transfected cells; host or cells: HEK293; conditions: for inhibitory effect on acid-induced hASIC1a activity (dose-response curve): HEK293 transfected with hASIC1a, intracellular calcium, increasing concentrations; for IC50: calcium mobilization assay, MES-induced calcium response, HEK293, n=3-7
Protocol: ASIC1a expressing HEK293 cells are grown in culture medium (DMEM with 10% FBS), in polystyrene culture flasks ([…]) at 37° C. in a humidified atmosphere of 5% CO2. Confluency of cells should be 80-90% on day of plating. Cells are rinsed with 10 ml of PBS and re-suspended by addition of culture medium and trituration with a 25 ml pipette.
The cells are seeded at a density of approximately 1×10^6 cells/ml (100 μl/well) in black-walled, clear bottom, 96-well plates pre-treated with 10 mg/l poly-D-lysin (75 μl/well for ≧30 min). Plated cells were allowed to proliferate for 24 h before loading with dye.
Fluo-4/AM (1 mg, Molecular Probes) is dissolved in 912 μl DMSO. The Fluo-4/AM stock solution (1 mM) is diluted with culture medium to a final concentration of 2 μM (loading solution).
The culture medium is aspirated from the wells, and 50 μl of the Fluo-4/AM loading solution is added to each well. The cells are incubated at 37° C. for 30 min.
After the loading period, the loading solution is aspirated and the cells are washed twice with 100 μl modified Assay Buffer (145 mM NaCl, 5 mM KCl, 5 mM CaCl2, 1 mM MgCl2, 10 mM HEPES, pH 7.4) to remove extracellular dye. Following the second wash, 100 μl modified Assay Buffer is added to each well and the fluorescence is measured in FLIPR™ or FlexStation™ (Molecular Devices, USA), or any other suitable equipment known to the skilled in the art.
Temperature: Room temperature (20-22° C.)
First addition: 50 μl test solution at a rate of 30 μl/sec and a starting height of 100 μl.
Second addition: 50 μl MES solution (20 mM, 5 mM final concentration) at a rate of 35 μl/sec and a starting height of 150 μl.
Reading intervals: pre-incubation—10 sec×7 and 3 sec×3 antagonist phase—3 sec×17 and 10 sec×12
Addition plates (compound test plate and MES plate) are placed on the right and left positions in the FLIPR tray, respectively. Cell plates are placed in the middle position and the ASIC1a program is effectuated. FLIPR will then take the appropriate measurements in accordance with the interval settings above. Fluorescence obtained after stimulation is corrected for the mean basal fluorescence (in modified Assay Buffer).
The MES-induced peak calcium response, in the presence of test substance, is expressed relatively to the MES response alone. Test substances that block the MES-induced calcium response are re-tested in triplicates. Confirmed hits are picked for further characterization by performing full dose-response curves to determine potency of each hit compound as represented by the IC50 values (i.e., the concentration of the test substance which inhibits 50% of the MES-induced calcium response; see, for example, FIGS. 1A, 1B and 1C, and FIGS. 13A and 13B).

formalin-induced pain = assay: Formalin test, model of acute tonic pain; type: in vivo, rat; conditions: Automated Nociception Analyser, n=6-8
Protocol: Male Sprague-Dawley rats are housed together in groups of three animals under standard conditions with unrestricted access to food and water. All experiments are conducted according to the ethical guidelines for investigations of experimental pain in conscious animals (Zimmerman, 1983)
Assessment of formalin-induced flinching behavior in normal, uninjured rats (body weight 150-180 g) was made with the use of an Automated Nociception Analyser (University of California, San Diego, USA). Briefly, this involved placing a small C-shaped metal band (10 mm wide×27 mm long) on the hindpaw of the rat to be tested. The rats (four rats were included in each testing session) were then placed in a cylindrical plexiglass observation chamber (diameter 30.5 cm and height 15 cm) for 20 min for adaptation purposes prior to being administered drug or vehicle according to the experimental paradigm being followed. After adaptation, individual rats were then gently restrained and formalin (5% in saline, 50 μl, s.c.) was injected into the plantar surface of the hindpaw using a 27G needle. Rats were then returned to their separate observation chambers, each of which were in turn situated upon an enclosed detection device consisting of two electromagnetic coils designed to produce an electromagnetic field in which movement of the metal band could be detected. The analogue signal was then digitised and a software algorithm (LabView) applied to enable discrimination of flinching behaviour from other paw movements. A sampling interval of 1 min was used and on the basis of the resulting response patterns 5 phases of nociceptive behaviour were identified and scored: first phase (P1; 0-5 min), interphase (Int; 6-15 min), second phase (P2; […]), phase 2A (P2A; 16-40 min) and phase 2B (P2B; 41-60 min).
Nociceptive behavior was also determined manually every 5 min by measuring the amount of time spent in each of four behavioral categories: 0, treatment of the injected hindpaw is indistinguishable from that of the contralateral paw; 1, the injected paw has little or no weight placed on it; 2, the injected paw is elevated and is not in contact with any surface; 3, the injected paw is licked, bitten, or shaken. A weighted nociceptive score, ranging from 0 to 3 was calculated by multiplying the time spent in each category by the category weight, summing these products, and dividing by the total time for each 5 min block of time. (Coderre et al., Pain 1993; 54: 43). On the basis of the resulting response patterns, […] of nociceptive behavior were identified and scored: first phase (P1; 0-5 min), interphase (Int; 6-15 min), second phase (P2; […]), phase 2A (P2A; 16-40 min) and phase 2B (P2B; 41-60 min). […]

Row | Compound | inhibitory effect on acid-induced hASIC1a activity (dose-response curve) (hASIC1a [2]) | IC50 (hASIC1a [2]) [nM] | other results
1 | N=C(N)NC(=O)c1nc(Cl)c(N)nc1N [amiloride, reference compound] |  |  | effect on size of human ASIC1a pH-evoked response (area under the curve, total charge transfer, normalized to control) (hASIC1a [1]; CHO cells, -60 mV, pH 6.8 from pH 7.4): reduce the human ASIC1a pH-evoked response in a dose-dependent manner
2 | CCN1CCc2c(-c3cc(C)ccc3C)cc3c(c2C1)NC(=O)/C3=N/O [Compound F, 5-(2,5-dimethylphenyl)-6,7,8,9-tetrahydro-3-(hydroxyimino)-8-ethyl-1H-pyrrolo[3,2-h]isoquinoline-2(3H)-one] | dose-dependently inhibit |  | 
3 | Cc1cc(C)cc(-c2cc3c(c4c2CCN(C)C4)NC(=O)/C3=N/O)c1 [Compound D, 5-(3,5-dimethylphenyl)-6,7,8,9-tetrahydro-3-(hydroxyimino)-8-methyl-1H-pyrrolo[3,2-h]isoquinoline-2(3H)-one] |  | 250 to 350 | 
4 | COc1ccc(Cl)cc1-c1cc2c(c3c1CCN(C)C3)NC(=O)/C2=N/O [Compound C, 5-(5-chloro-2-methoxyphenyl)-6,7,8,9-tetrahydro-3-(hydroxyimino)-8-methyl-1H-pyrrolo[3,2-h]isoquinoline-2(3H)-one] |  | 200 to 300 | 
5 | CCN1CCc2c(-c3ccccc3OC)cc3c(c2C1)NC(=O)/C3=N/O [Compound J, 8-ethyl-5-(2-methoxy-phenyl)-6,7,8,9-tetrahydro-1H-pyrrolo[3,2-h]isoquinoline-2,3-dione 3-oxime] |  | 100 to 700 | effect on proton-gated currents from CHO cells expressing hASIC1a (hASIC1a [1]): inhibitory effects

Now from value to compound, other results behind:

Row | inhibitory effect on acid-induced hASIC1a activity (dose-response curve) (hASIC1a [2]) | IC50 (hASIC1a [2]) [nM] | Compound | other results
6 | dose-dependently inhibit |  | CCN1CCc2c(-c3cc(Cl)ccc3OC)cc3c(c2C1)NC(=O)/C3=N/O [Compound G, 5-(5-chloro-2-methoxyphenyl)-6,7,8,9-tetrahydro-3-(hydroxyimino)-8-ethyl-1H-pyrrolo[3,2-h]isoquinoline-2(3H)-one] | 
7 |  | 20 to 30 | CCN1CCc2c(-c3cc(F)ccc3OC)cc3c(c2C1)NC(=O)/C3=N/O [Compound B, 5-(5-fluoro-2-methoxyphenyl)-6,7,8,9-tetrahydro-3-(hydroxyimino)-8-ethyl-1H-pyrrolo[3,2-h]isoquinoline-2(3H)-one] | pain intensity as evaluated by the flinching behavior (formalin-induced pain): dose-dependent reduction of the pain intensity
8 | dose-dependently inhibit |  | CCN1CCc2c(-c3cc(C)cc(C)c3)cc3c(c2C1)NC(=O)/C3=N/O [Compound E, 5-(3,5-dimethylphenyl)-6,7,8,9-tetrahydro-3-(hydroxyimino)-8-ethyl-1H-pyrrolo[3,2-h]isoquinoline-2(3H)-one] | 
9 |  | 300 to 1700 | CCOc1ccccc1-c1cc2c(c3c1CCN(CC)C3)NC(=O)/C2=N/O [Compound K, 5-(2-ethoxy-phenyl)-8-ethyl-6,7,8,9-tetrahydro-1H-pyrrolo[3,2-h]isoquinoline-2,3-dione 3-oxime] | effect on proton-gated currents from CHO cells expressing hASIC1a (hASIC1a [1]): inhibitory effects

Source: patent US7718641B2, “Pyrrolo [3,4-H] isoquinoline compounds and methods for modulating gated ion channels” (Aros Pharma ApS, priority 2005, dated 2010)
